Data published in patent publication US8383637B2, “2-amino-quinazoline derivatives useful as inhibitors of β-secretase (BACE)” (Jansssen Pharmaceutica N.V., priority 2004, dated 2013).
Like-named read-outs stand apart in the source and are kept apart here.

Target: T1, β-secretase(BACE) (Homo sapiens, UniProt P56817)
T1 construct: purchased Panvera
Assay: BACE FS1% Inhibition Assay
Type: biochemical
Details: FS1 substrate
Method in brief: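 Percent inhibition at each tested concentration, referenced to enzyme-free blank and vehicle-only positive control. Reaction: compound and BACE (4 μg/mL working stock) mixed 20 min at room temperature before FS1 substrate (300 μg/mL working stock), then 1 h at room temperature.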

[1] = 0.3 μM test compound, read-out: % Inhibition (FS) 0.3 μM
[2] = 1 μM test compound, read-out: % Inhibition (FS) 1 μM
[3] = 3 μM test compound, read-out: % Inhibition (FS) 3 μM

T1 sequence (P56817 46-501): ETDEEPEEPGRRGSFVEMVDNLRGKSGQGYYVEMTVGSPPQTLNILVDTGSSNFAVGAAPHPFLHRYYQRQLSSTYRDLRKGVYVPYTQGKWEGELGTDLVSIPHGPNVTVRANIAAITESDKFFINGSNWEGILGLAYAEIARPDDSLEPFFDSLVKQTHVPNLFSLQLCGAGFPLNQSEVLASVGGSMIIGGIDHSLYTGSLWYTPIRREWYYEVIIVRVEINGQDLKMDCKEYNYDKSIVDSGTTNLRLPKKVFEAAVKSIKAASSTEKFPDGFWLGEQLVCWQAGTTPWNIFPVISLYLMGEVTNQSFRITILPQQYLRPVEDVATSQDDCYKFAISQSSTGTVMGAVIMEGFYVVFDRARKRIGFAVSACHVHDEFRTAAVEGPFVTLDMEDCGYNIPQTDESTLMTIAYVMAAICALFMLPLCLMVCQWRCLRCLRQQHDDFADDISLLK

SMILES: NC1=Nc2ccc(Oc3ccccc3)cc2CN1C(Cc1ccccc1)c1ocnc1C(=O)NC1CCCCC1 (centres unmarked) [Compound 606, 5-[1-(2-Amino-6-phenoxy-4H-quinazolin-3-yl)-2-phenyl-ethyl]-oxazole-4-carboxylic acid cyclohexylamide]
- inhibition at 0.3 µM [1]: < 30%
- inhibition at 1 µM [2]: < 30%
- inhibition at 3 µM [3]: 56%

SMILES: CC(C)CCOc1ccc2c(c1)CN(Cc1cccc(C(=O)N(C)C3CCCCC3)c1)C(N)=N2 [Compound 517, 3-[2-Amino-6-(3-methyl-butoxy)-4H-quinazolin-3-ylmethyl]-N-cyclohexyl-N-methyl-benzamide]
- inhibition at 0.3 µM [1]: < 30%
- inhibition at 1 µM [2]: < 30%
- inhibition at 3 µM [3]: 40%

SMILES: CN(C(=O)c1cccc(CN2Cc3cc(Oc4ccccc4-n4cccc4)ccc3N=C2N)c1)C1CCCCC1 [Compound 471]
- % Inhibition (FS) 0.3 μM (0.3 μM test compound): <30%
- % Inhibition (FS) 1 μM (1 μM test compound): <30%
- % Inhibition (FS) 3 μM (3 μM test compound): 38%

SMILES: NC1=Nc2ccc(-c3ccc4ccccc4c3)cc2CN1CCNC(=O)C12CC3CC(CC(C3)C1)C2 [Compound 665]
- % Inhibition (FS) (0.3 μM test compound): 35%
- % Inhibition (FS) (1 μM test compound): <30%
- % Inhibition (FS) (3 μM test compound): <30%

SMILES: CN1CCC(N(C)C(=O)c2cccc(CN3Cc4cc(Oc5ccccc5)ccc4N=C3N)c2)CC1 [Compound 223]
- % Inhibition (FS) 0.3 μM (0.3 μM test compound): <30%
- % Inhibition (FS) 1 μM (1 μM test compound): <30%
- % Inhibition (FS) 3 μM (3 μM test compound): <30%

SMILES: CC1CCC(NC(=O)c2cccc(CN3Cc4cc(Oc5ccccc5)ccc4N=C3N)c2)CC1 (centres unmarked) [Compound 213]
- % Inhibition (FS) 0.3 μM (0.3 μM test compound): <30%
- % Inhibition (FS) 1 μM (1 μM test compound): <30%
- % Inhibition (FS) 3 μM (3 μM test compound): <30%

SMILES: Cc1ccccc1-c1ccc2c(c1)CN(CCNC(=O)CCC(F)(F)F)C(N)=N2 [Compound 678]
- % Inhibition (FS) (0.3 μM test compound): 51%
- % Inhibition (FS) (1 μM test compound): 88%
- % Inhibition (FS) (3 μM test compound): 99%

SMILES: COc1ccccc1Oc1ccc2c(c1)CN(Cc1cccc(C(=O)N(C)C3CCCCC3)c1)C(N)=N2 [Compound 232]
- % Inhibition (FS) 0.3 μM (0.3 μM test compound): <30%
- % Inhibition (FS) 1 μM (1 μM test compound): <30%
- % Inhibition (FS) 3 μM (3 μM test compound): 31%

SMILES: NC1=Nc2ccc(Oc3ccccc3)cc2CN1C1c2ccccc2-c2cccc(C(=O)N(C3CCCCC3)C3CCCCC3)c21 (centres unmarked) [Compound 124]
- % Inhibition (FS) 3 μM (3 μM test compound): 56%
- % Inhibition (FS) 10 μM (10 μM test compound): 67%

SMILES: NC1=Nc2ccc(-c3ccccc3Cl)cc2CN1CCNC(=O)C12CC3CC(CC(C3)C1)C2 [Compound 651]
- % Inhibition (FS) 0.3 μM (0.3 μM test compound): <30%
- % Inhibition (FS) 1 μM (1 μM test compound): 51%
- % Inhibition (FS) 3 μM (3 μM test compound): 96%

SMILES: CCC(c1cccc(C(=O)N(C)C2CCCCC2)c1)N1Cc2cc(-c3ccccc3OC)ccc2N=C1N (racemic) [Compound 395]
- % Inhibition (FS) 0.3 μM (0.3 μM test compound): 69%
- % Inhibition (FS) 1 μM (1 μM test compound): 107%
- % Inhibition (FS) 3 μM (3 μM test compound): 118%

SMILES: CN(C(=O)c1ccccc1CN1Cc2cc(Oc3ccccc3)ccc2N=C1N)C1CCCCC1 [Compound 463]
- % Inhibition (FS) 0.3 μM (0.3 μM test compound): <30%
- % Inhibition (FS) 1 μM (1 μM test compound): <30%
- % Inhibition (FS) 3 μM (3 μM test compound): <30%

SMILES: COc1cccc(CCNC(=O)CCC(C2CCCCC2)N2Cc3cc(F)ccc3N=C2N)c1 (centres unmarked) [Compound 810]
- inhibition at 0.3 µM (0.3 μM test compound, read-out: % Inhibition (FS)): < 30%
- inhibition at 1 µM (1 μM test compound, read-out: % Inhibition (FS)): < 30%
- inhibition at 3 µM (3 μM test compound, read-out: % Inhibition (FS)): < 30%

SMILES: CC(=O)N1CCC(C(=O)NCCN2Cc3cc(-c4ccccc4Cl)ccc3N=C2N)CC1 [Compound 691]
- % Inhibition (FS) (0.3 μM test compound): <30%
- % Inhibition (FS) (1 μM test compound): <30%
- % Inhibition (FS) (3 μM test compound): 51%

SMILES: CN(C(=O)CC(C1CCCCC1)N1Cc2cc(Oc3ccccc3)ccc2N=C1N)C1CCCCC1 (centres unmarked) [Compound 199]
- % Inhibition (FS) 0.3 μM (0.3 μM test compound): <30%
- % Inhibition (FS) 1 μM (1 μM test compound): <30%
- % Inhibition (FS) 3 μM (3 μM test compound): 82%

SMILES: CCCCC(CC)C(=O)NCCN1Cc2cc(-c3ccccc3Cl)ccc2N=C1N (centres unmarked) [Compound 655]
- % Inhibition (FS) 0.3 μM (0.3 μM test compound): 45%
- % Inhibition (FS) 1 μM (1 μM test compound): 79%
- % Inhibition (FS) 3 μM (3 μM test compound): 104%

SMILES: CCCC=Cc1ccc2c(c1)CN(CCNC(=O)CCC)C(N)=N2 [Compound 571]
- % Inhibition (FS) 0.3 μM (0.3 μM test compound): <30%
- % Inhibition (FS) 1 μM (1 μM test compound): <30%
- % Inhibition (FS) 3 μM (3 μM test compound): <30%

SMILES: CC(C)(C)C1CCC(C(=O)NCCN2Cc3cc(Oc4ccccc4)ccc3N=C2N)CC1 (centres unmarked) [Compound 184]
- % Inhibition (FS) 0.3 μM (0.3 μM test compound): <30%
- % Inhibition (FS) 1 μM (1 μM test compound): <30%
- % Inhibition (FS) 3 μM (3 μM test compound): 31%

SMILES: NC1=Nc2ccc(-c3ccccc3)cc2CN1CCNC(=O)Cc1ccccc1 [Compound 595]
- % Inhibition (FS) 0.3 μM (0.3 μM test compound): 32%
- % Inhibition (FS) 1 μM (1 μM test compound): 70%
- % Inhibition (FS) 3 μM (3 μM test compound): 104%

SMILES: COc1ccccc1-c1ccc2c(c1)CN(CCNC(=O)CCN)C(N)=N2 [Compound 493]
- % Inhibition (FS) 0.3 μM (0.3 μM test compound): <30%
- % Inhibition (FS) 1 μM (1 μM test compound): <30%
- % Inhibition (FS) 3 μM (3 μM test compound): 49%

SMILES: Cc1cccc(Nc2ccc3c(c2)CN(Cc2cccc(C(=O)N(C)C4CCCCC4)c2)C(N)=N3)c1 [Compound 435]
- % Inhibition (FS) 0.3 μM (0.3 μM test compound): <30%
- % Inhibition (FS) 1 μM (1 μM test compound): <30%
- % Inhibition (FS) 3 μM (3 μM test compound): 85%

SMILES: NC1=Nc2ccc(Oc3ccccc3)cc2CN1C1CCCCN(C(=O)C2CCCCC2)C1 (centres unmarked) [Compound 551]
- % Inhibition (FS) 0.3 μM (0.3 μM test compound): <30%
- % Inhibition (FS) 1 μM (1 μM test compound): <30%
- % Inhibition (FS) 3 μM (3 μM test compound): <30%

SMILES: CCCC(CNC(=O)C12CC3CC(CC(C3)C1)C2)N1Cc2cc(Oc3ccccc3)ccc2N=C1N (centres unmarked) [Compound 602]
- % Inhibition (FS) 0.3 μM (0.3 μM test compound, 0.3 µM): 78%
- % Inhibition (FS) 1 μM (1 μM test compound, 1 µM): 113%
- % Inhibition (FS) 3 μM (3 μM test compound, 3 µM): 121%

SMILES: Cc1ccc(Sc2ccc3c(c2)CN(Cc2cccc(C(=O)N(C)C4CCCCC4)c2)C(N)=N3)cc1C [Compound 408]
- % Inhibition (FS) 0.3 μM (0.3 μM test compound): <30%
- % Inhibition (FS) 1 μM (1 μM test compound): 34%
- % Inhibition (FS) 3 μM (3 μM test compound): 95%

SMILES: NC1=Nc2ccc(Oc3ccccc3)cc2CN1Cc1cccc(C(=O)NC2CCCCC2)c1 [Compound 451]
- % Inhibition (FS) 0.3 μM (0.3 μM test compound): <30%
- % Inhibition (FS) 1 μM (1 μM test compound): <30%
- % Inhibition (FS) 3 μM (3 μM test compound): <30%

SMILES: NC1=Nc2ccc(Oc3ccccc3)cc2CN1CC1CCN(C(=O)C2CCCCC2)CC1 [Compound 525]
- % Inhibition (FS) 0.3 μM (0.3 μM test compound): <30%
- % Inhibition (FS) 1 μM (1 μM test compound): <30%
- % Inhibition (FS) 3 μM (3 μM test compound): 70%

SMILES: CN(C(=O)CC[C@@H](C1CCCCC1)N1Cc2ccc(Oc3ccccc3)cc2N=C1N)C1CCCCC1 [Compound 754]
- % Inhibition (FS) (0.3 μM test compound): 8%
- % Inhibition (FS) (1 μM test compound): 35%
- % Inhibition (FS) (3 μM test compound): 89%

SMILES: Cc1ccccc1-c1ccc2c(c1)CN(CCNC(=O)C13CC4CC(CC(C4)C1)C3)C(N)=N2 [Compound 658]
- % Inhibition (FS) 0.3 μM (0.3 μM test compound): <30%
- % Inhibition (FS) 1 μM (1 μM test compound): 62%
- % Inhibition (FS) 3 μM (3 μM test compound): 100%

SMILES: CN(C(=O)c1cccc(CN2Cc3cc(-c4cn[nH]c4)ccc3N=C2N)c1)C1CCCCC1 [Compound 161]
- % Inhibition (FS) 0.3 μM (0.3 μM test compound): <30%
- % Inhibition (FS) 1 μM (1 μM test compound): <30%
- % Inhibition (FS) 3 μM (3 μM test compound): <30%

SMILES: COc1ccc(C)cc1Oc1ccc2c(c1)CN(Cc1cccc(C(=O)N(C)C3CCCCC3)c1)C(N)=N2 [Compound 467]
- % Inhibition (FS) 0.3 μM (0.3 μM test compound): <30%
- % Inhibition (FS) 1 μM (1 μM test compound): <30%
- % Inhibition (FS) 3 μM (3 μM test compound): <30%

SMILES: CC(C)[C@@H](CNC(=O)C1CCCCC1)N1Cc2cc(Oc3ccccc3)ccc2N=C1N [Compound 528]
- % Inhibition (FS) 0.3 μM (0.3 μM test compound): <30%
- % Inhibition (FS) 1 μM (1 μM test compound): <30%
- % Inhibition (FS) 3 μM (3 μM test compound): 41%

SMILES: CC(C)CC(=O)NCCN1Cc2cc(Oc3ccccc3)ccc2N=C1N [Compound 190]
- % Inhibition (FS) 0.3 μM (0.3 μM test compound): 51%
- % Inhibition (FS) 1 μM (1 μM test compound): 86%
- % Inhibition (FS) 3 μM (3 μM test compound): 101%

SMILES: CCCCC(CC)CN(CC(CC)CCCC)C(=O)c1cccc(CN2Cc3cc(Oc4ccccc4)ccc3N=C2N)c1 (centres unmarked) [Compound 198]
- % Inhibition (FS) 0.3 μM (0.3 μM test compound): <30%
- % Inhibition (FS) 1 μM (1 μM test compound): <30%
- % Inhibition (FS) 3 μM (3 μM test compound): <30%

SMILES: Cc1ccc(-c2ccc3c(c2)CN(CCNC(=O)C2CCCCC2)C(N)=N3)cc1 [Compound 628]
- % Inhibition (FS) 0.3 μM (0.3 μM test compound): <30%
- % Inhibition (FS) 1 μM (1 μM test compound): <30%
- % Inhibition (FS) 3 μM (3 μM test compound): 32%

SMILES: CN(C(=O)c1cccc(CN2Cc3cc(Oc4ccccc4S(C)(=O)=O)ccc3N=C2N)c1)C1CCCCC1 [Compound 472]
- % Inhibition (FS) 0.3 μM (0.3 μM test compound): <30%
- % Inhibition (FS) 1 μM (1 μM test compound): <30%
- % Inhibition (FS) 3 μM (3 μM test compound): <30%

SMILES: NC1=Nc2ccc(-c3cnc4ccccc4c3)cc2CN1CCNC(=O)C12CC3CC(CC(C3)C1)C2 [Compound 672]
- % Inhibition (FS) (0.3 μM test compound): <30%
- % Inhibition (FS) (1 μM test compound): <30%
- % Inhibition (FS) (3 μM test compound): <30%

SMILES: NC1=Nc2ccc(-c3ccccc3Cl)cc2CN1CCNC(=O)C1CCC(C(F)(F)F)CC1 (centres unmarked) [Compound 690]
- % Inhibition (FS) (0.3 μM test compound): <30%
- % Inhibition (FS) (1 μM test compound): <30%
- % Inhibition (FS) (3 μM test compound): 52%
